{"source": "patent US7371414B2", "about": "“Therapeutic and diagnostic methods dependent on CYP2A enzymes” (Nicogen, Inc., priority 1997, dated 2008)", "key": {"CYP2A6 [1]": {"target": "T1, CYP2A6 (Homo sapiens, UniProt P11509)", "T1 sequence (P11509 1-494)": "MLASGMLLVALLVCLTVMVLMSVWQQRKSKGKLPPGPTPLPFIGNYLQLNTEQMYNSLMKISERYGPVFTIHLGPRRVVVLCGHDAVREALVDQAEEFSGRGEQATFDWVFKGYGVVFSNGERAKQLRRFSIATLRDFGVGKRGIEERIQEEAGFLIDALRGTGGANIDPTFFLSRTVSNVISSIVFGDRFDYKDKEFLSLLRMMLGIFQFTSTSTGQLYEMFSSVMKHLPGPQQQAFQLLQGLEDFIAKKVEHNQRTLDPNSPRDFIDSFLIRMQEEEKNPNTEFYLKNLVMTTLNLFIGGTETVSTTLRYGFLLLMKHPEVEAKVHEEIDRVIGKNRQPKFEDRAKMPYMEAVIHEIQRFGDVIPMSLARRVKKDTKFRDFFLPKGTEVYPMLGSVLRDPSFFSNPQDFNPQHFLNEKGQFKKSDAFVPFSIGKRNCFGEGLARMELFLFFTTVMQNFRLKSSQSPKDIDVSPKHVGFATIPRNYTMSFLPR", "assay": "In vitro inhibition of nicotine metabolism in expressed CYP2A6"}, "CYP2A6 [2]": {"target": "T1, CYP2A6", "settings": "nicotine 4.0 mg p.o.; for increase in plasma nicotine: p<0.01"}, "CYP2A6 [3]": {"target": "T1, CYP2A6", "assay": "Inhibition of nicotine metabolism to cotinine in test livers", "type": "biochemical", "set-up": "from tissue; host or cells: human smokers in vivo (hepatic CYP2A6)"}, "CYP2A6 [4]": {"target": "T1, CYP2A6", "assay": "Effect of esculetin on nicotine metabolism by human liver microsomes", "type": "biochemical", "set-up": "from tissue; host or cells: human smokers in vivo (hepatic CYP2A6)", "settings": "FIG. 19", "method": "Nicotine metabolism was monitored in vitro. Inhibitor assessment was carried out by comparing the assay including 50 μl tris buffer with the extracts prepared in Example 11 (50 μl, diluted in tris buffer). Human liver microsomes or CYP2A6 microsomes were used. The concentration of inhibitor in Hypericum was calculated on the basis of an apparent molecular weight of the inhibitor of 504 and a concentration of 0.3% active material in the plant material when diluting to yield concentrations of […] μM.\n• Substrate 80 μM (50 μl tris buffer) • NADPH1 mM (50 μl tris buffer) • Microsomes 80 μg (30 μl tris buffer) • Cytosol (rat) 20 μl (tris buffer) • Tris buffer 50 μl (pH7.4) • Final volume […] Incubation Procedure:\nThe incubation was carried out at 37° C. for 30 min. An internal standard (50 μl, caffeine, 0.05 mg/ml) was added to the incubation mixture, followed by DCM (1 ml). The mixture was shaken for 10 min and centrifuged for 5 min at 3,000 g. The top layer was aspirated. HC1 (0.01 N, 100 μl) was added, followed by shaking for 1 min, then centrifuge for 5 min at 3,000 g. 30 μl of the HCl layer was injected for HPLC. […]"}, "CYP2A6 [5]": {"target": "T1, CYP2A6", "assay": "Effect of methoxsalen on nicotine metabolism in tobacco dependent smokers (Example 6)", "type": "in vivo", "set-up": "from tissue; host or cells: human smokers in vivo (hepatic CYP2A6)", "settings": "methoxsalen 10 mg t.i.d. p.o.", "method": "Subjects were recruited only if they smoked at least 15 cigarette per day, and were required to smoke the same number of cigarettes each day, on all four study days. During assessment, blood was taken to be analyzed for plasma nicotine and cotinine levels, as well as for CYP2A6 genotyping. Breath carbon monoxide was also measured.\nDuring each study day a smoking log was completed. This log asked subjects to document the number of cigarette smoked from 8:00 a.m. to […]., and 10:00 p.m. to 8:00 a.m. Study days 1 and 2 could be separated, but days 2, 3 and 4 were required to be consecutive.\nOn both study days 1 (placebo) and 4 (treatment), a 24 h urine collection was initiated on waking. At 2:00 p.m. blood was drawn for nicotine and cotinine analysis and breath carbon monoxide was measured. […] Urine samples can be analyzed for 24 h NNAL, NNAL glucuronide, creatinine and cotinine."}, "CYP2A6 [6]": {"test_system": "CYP2A6", "assay": "In vivo phenotype assay: plasma kinetics of nicotine and coumarin after oral administration by CYP2A6 genotype", "settings": "both, human, 4 mg, plasma nicotine, 90 min after nicotine 4.0 mg oral", "method": "The plasma kinetics of nicotine and coumarin were compared after oral administration in 10 smokers and 9 non-smokers (12 males, 7 females) of known CYP2A6 genotype. The dose of nicotine was 4.0 mg (expressed as base) and the dose of coumarin was 50 mg. The plasma concentration of nicotine, cotinine, coumarin and 7-OH-coumarin were measured as described above."}, "[7]": {"settings": "cited from earlier work"}}, "note": "Read-outs that look alike come from different tables or passages of the source.", "data": [{"smiles": "N[C@@H]1C[C@H]1c1ccccc1", "note": "(racemic) [tranylcypromine]", "values": [{"measurement": "inhibition of CYP2A6 (in words)", "setting": "CYP2A6 [1]", "value": "potent inhibitors of CYP2A6"}, {"measurement": "desire to smoke", "setting": "CYP2A6 [2]; inhibitor dose 2.5 mg (T2.5), p=0.17", "value": "significant (p<0.05) decrease"}, {"measurement": "increase in plasma nicotine", "setting": "CYP2A6 [2]; inhibitor dose 2.5 mg", "value": "~100", "unit": "%"}, {"measurement": "increase in plasma nicotine", "setting": "CYP2A6 [2]; inhibitor dose 10 mg", "value": "~100", "unit": "%"}, {"measurement": "plasma nicotine compared to placebo (in words)", "setting": "CYP2A6 [2]; methoxsalen 3 mg, 10 mg or 30 mg, tranylcypromine 2.5 mg or 10 mg", "value": "significantly increased"}]}, {"smiles": "O=c1ccc2ccccc2o1", "note": "[coumarin]", "values": [{"measurement": "inhibition of nicotine metabolism to cotinine", "setting": "CYP2A6 [3]", "value": "84%±11%"}]}, {"smiles": "O=c1ccc2cc(O)c(O)cc2o1", "note": "[esculetin]", "values": [{"measurement": "inhibition of nicotine metabolism by CYP2A6 (in words)", "setting": "CYP2A6 [4]", "value": "potent inhibitor of CYP2A6"}]}, {"smiles": "COc1c2occc2cc2ccc(=O)oc12", "note": "[methoxsalen]", "values": [{"measurement": "decrease in breath CO", "setting": "CYP2A6 [5]; day 4 vs placebo day", "value": 11, "unit": "%"}, {"measurement": "increase in plasma nicotine", "setting": "CYP2A6 [5]; day 4 vs placebo day", "value": 17, "unit": "%"}, {"measurement": "breath CO", "setting": "CYP2A6 [5]; treatment day 4", "value": 20.5, "unit": "ppm"}, {"measurement": "plasma nicotine", "setting": "CYP2A6 [5]; treatment day 4", "value": 27, "unit": "ng/mL"}, {"measurement": "desire to smoke", "setting": "CYP2A6 [2]; inhibitor dose 10 mg (M10)", "value": "significant (p<0.05) decrease"}, {"measurement": "desire to smoke", "setting": "CYP2A6 [2]; inhibitor dose 30 mg (M30)", "value": "significant (p<0.05) decrease"}]}, {"smiles": "CN1CCCC1c1cccnc1", "note": "(stereo not drawn) [nicotine]", "values": [{"measurement": "concentration at 90 min", "setting": "CYP2A6 [6]; genotype *1/*1", "value": "24 ± 15", "unit": "nM"}, {"measurement": "concentration at 90 min", "setting": "CYP2A6 [6]; genotype *1/*2 or *1/*3", "value": "29 ± 12", "unit": "nM"}, {"measurement": "concentration at 90 min", "setting": "CYP2A6 [6]; genotype *2/*2", "value": "52 ± 3", "unit": "nM"}, {"measurement": "share of nicotine metabolized to the inactive metabolite cotinine", "setting": "[7]; in humans", "value": "60-85%"}, {"measurement": "share of nicotine metabolized by CYP2A6 in vivo", "setting": "[7]; in vivo", "value": "approximately 75%"}, {"measurement": "share of oral nicotine metabolized to cotinine by the liver", "setting": "[7]; oral, first pass", "value": "60-85%"}, {"measurement": "nicotine bioavailability", "setting": "[7]; oral", "value": "20-35%"}, {"measurement": "share of oral nicotine that reaches the systemic circulation", "setting": "[7]; oral", "value": "15-40%"}]}]}
